Source: patent publication US8703825B2, “Compounds, use thereof as medicaments, and method of preparation thereof” (Universite de Lorraine, priority 2008, dated 2014)
Values after ≈ are worked out from the molar mass of the structure shown. Like-named read-outs stand apart in the source and are kept apart here.

Tests used:
Format in all cases: cell-based
[1] = system: P. aeruginosa overexpressing an efflux pump (PaR1); assay: MIC by microdilution, clinical isolate; conditions: Pseudomonas aeruginosa
Procedure: (§1) The study also included 5 clinical isolates, obtained from rectal samples and/or from haemoculture: • […] E. coli (EcR1), • methicillin-resistant S. aureus (mecA gene) (SaR1), • vancomycin-resistant E. faecium (vanB gene) (EfR1), • E. faecalis resistant to teicoplanin and to vancomycin (vanA gene) (EfR2), and • P. aeruginosa overexpressing an efflux pump (PaRl).
(§2) The isolates were selected on the basis of their resistance profile. The resistance profiles were determined on VITEK2 (BioMérieux, France).
(§3) The bacteria are cultivated either on Mueller-Hinton agar (Difco, 225250), or in Mueller-Hinton broth (Difco, 275730), at 35° C. [Grare M, Mourer M, Fontanay S, Regnouf-de-Vains J B, Finance C, Duval R E. In vitro activity of para-guanidinoethylcalix[4]arene against susceptible and antibiotic-resistant Gram-negative and Gram-positive bacteria. J. Antimicrob Chemother. 2007; 60: 575-81].
(§4) The various molecules tested were prepared in the form of aqueous solution at 10^−2 mol/L. The solutions used for the biological tests are freshly prepared, and stored for a week at most, at 4° C. The solutions are filtered through a filter with pores of 0.22 μm (Millex®GP; 0.22 μm; Millipore; France) before each test.
(§5) Procedure for determining the Minimum Inhibitory Concentration (MIC)
(§6) The minimum inhibitory concentrations (MIC) were determined by the standardized method of microdilution in liquid medium (96-well microplate, U-shaped bottom, Greiner), in Mueller-Hinton broth, with a final inoculum of 10^5-10^6 CFU/mL, depending on the bacterial species, in accordance with the recommendations of the CLSI.
(§7) For the determination of MIC, bacterial suspensions are prepared from an isolated colony, taken from a Mueller-Hinton agar, taken up in 5 mL of Mueller-Hinton broth. After 24 h of growth, the bacterial suspensions are diluted in sterile distilled water in order to obtain an inoculum of 10^5-10^6 CFU/mL. The purity of the bacterial suspensions is tested by isolation on agar and Gram staining.
(§8) The results are the mean value of 4 independent experiments.

[2] = system: MRSA (mecA gene), methicillin-resistant S. aureus (SaR1); assay: MIC by microdilution, clinical isolate; conditions: Staphylococcus aureus
Procedure: as §1, §2, §3, §4, §5, §6, §7, §8

[3] = system: E. faecalis resistant to teicoplanin and to vancomycin (vanA gene) (EfR2); assay: MIC by microdilution, clinical isolate; conditions: Enterococcus faecalis
Procedure: as §1, §2, §3, §4, §5, §6, §7, §8

[4] = system: HaCaT cells (human keratinocytes); assay: Cellular viability test (MTT test); conditions: read-out: IC50 viability test (with MTT)
Description: (§9) The eukaryotic cells used in our study are HaCaT cells (human keratinocytes), which were kindly supplied by the Pierre Fabre Institute (Toulouse, France); and MRC-5 cells (human embryonic fibroblasts), which were obtained from the company BioMérieux (Lyons, France). These cells are cultivated in DMEM (“Dulbecco's modified Eagle's medium”, Invitrogen 61965) for the HaCaT cells, and MEM (“modified Eagle's medium”, Invitrogen 41090); 10% of fetal calf serum (FCS, Invitrogen, 10270, Batch 40Q5150K) in a humid chamber at 37° C., under 5% CO2. The HaCaT and MRC-5 cells were seeded at 10^4 cells/well in 96-well plates (Sarstedt 831835). After 48 h of growth, the culture medium is withdrawn and replaced with the various “test” solutions (volume=100 μL). After contact time of 24, 48 and/or 168 H,the viability or cytotoxicity tests are carried out.
(§10) a) Cellular Viability Tests (MTT Test)
(§11) In order to evaluate the effect of the various compounds tested on the viability of HaCaT and MRC-5 cells, the MTT technique (3-[4,5-dimethylthiazol-2-yl]-2,5-diphenyltetrazolium bromide; MTT, Aldrich, 135038), described by Mosmann [Mosmann T. Rapid colorimetric assay for cellular growth and survival: application to proliferation and cytotoxicity assays. J Immunol Methods. 1983; 65: 55-63] and modified by Grare et al. [Grare M, Mourer M, Fontanay S, Regnouf-de-Vains J B, Finance C, Duval R E. In vitro activity of para-guanidinoethylcalix[4]arene against susceptible and antibiotic-resistant Gram-negative and Gram-positive bacteria. J Antimicrob Chemother. 2007; 60: 575-81], was used.
(§12) It is based on the reduction of yellow tetrazolium salts to purple crystals of formazan, mainly by mitochondrial dehydrogenases. The quantity of formazan formed is proportional to the number of live cells. After the contact times of 24, 48 and/or 168 h with the different concentrations of the test molecules, 10 nI, of MTT (at 5 mg/mL) is added to each well and the plates are placed at 37° C. After incubation for 4 H,the insoluble crystals of formazan that have formed are dissolved by adding 100 μL SDS to each well. The absorbance is measured at 540 nm with a reference wavelength at 690 nm, using an ELISA plate reader (Multiskan E X, Thermo Electron Corporation, France). The results are the mean of the values obtained for 8 wells per concentration and per unit time. Each experiment was carried out 3 times.

[5] = system: MRC-5 cells (human embryonic fibroblasts); assay: Cellular viability test (MTT test); conditions: read-out: IC50 viability test (with MTT)
Description: as §9, §10, §11, §12

in vitro = conditions: human
Description: as §9
b) Cytotoxicity Tests (Neutral Red Test)
The cytotoxicity test is based on incorporation of a vital dye, Neutral Red, in the lysosomes of the viable cells, after exposure of the cells to different concentrations of the test molecules. The quantity of dye, after extraction from the lysosomes, is quantified by means of a spectrophotometer and compared with that obtained in the case of “control” cells, not exposed to the test molecules.
The test was carried out as described previously [Borenfreund E, Puerner J A. Toxicity determined in vitro by morphological alterations and neutral red absorption. Toxicol Lett 1985; 24: 119-24, and Grare M, Mourer M, Fontanay S, Regnouf-de-Vains J B, Finance C, Duval R E. In vitro activity of para-guanidinoethylcalix[4]arene against susceptible and antibiotic-resistant Gram-negative and Gram-positive bacteria. J Antimicrob Chemother. 2007; 60: 575-81].
After contact times of 24, 48 and/or 168 h with the different concentrations of the test molecules, the medium contained in each well is withdrawn and replaced with 200 μL of medium without phenol red (Invitrogen, 51200) containing 50 μg/mL of Neutral Red for an additional 3 h of incubation. The cells are then rinsed 3 times with PBS solution. After the last washing with PBS, 200 μL of a solution with 1% acetic acid/50% ethanol is added to each well to extract the dye from the lysosomes of the viable cells. The absorbance is measured at 540 nm, with a reference wavelength at 690 nm, by means of an ELISA plate reader (Multiskan E X, Thermo Electron Corporation, France). The results are the mean of the values obtained for 8 wells per concentration and per unit time. Each experiment was carried out 3 times.

[6] = clinical isolate, MRSA (mecA gene), read-out: MIC
[7] = clinical isolate, E. faecalis (vanA gene), read-out: MIC

SMILES | MIC [1] [µg/mL] | MIC [2, 6] [µg/mL] | MIC [3, 7] [µg/mL] | IC50 ([4]; 24 h) [µg/mL] | IC50 ([4]; 48 h) [µg/mL] | IC50 ([4]; 168 h) [µg/mL] | IC50 ([5]; MRC5, MRC-5, 24 h) [µg/mL] | IC50 ([5]; MRC5, MRC-5, 48 h) [µg/mL] | IC50 ([5]; MRC5, MRC-5, 168 h) [µg/mL] | CC50 at 24 h (in vitro) [µg/mL] | MIC ([2]; MRSA) [µg/mL] | MIC [3] [µg/mL] | IC50 ([5]; MRC5, 24 h) [µg/mL] | IC50 ([5]; MRC5, 48 h) [µg/mL] | IC50 ([5]; MRC5, 168 h) [µg/mL] | CC50 at 48 h (in vitro) [µg/mL]
[H]/N=C(\N/C(=N/[H])NCCCCCCNC(=N)NC(=N)Nc1ccc(Cl)cc1)Nc1ccc(Cl)cc1 [CHX, chlorhexidine] | 8 (≈ 15.8 µM) | 0.5 (≈ 0.989 µM) | 2 (≈ 3.96 µM) | 8 to 16 (≈ 15.8 to 31.7 µM) | 4 to 8 (≈ 7.91 to 15.8 µM) | 2 to 4 (≈ 3.96 to 7.91 µM) | 16 to 32 (≈ 31.7 to 63.3 µM) | 8 to 16 (≈ 15.8 to 31.7 µM) | 1 to 2 (≈ 1.98 to 3.96 µM) | 8 to 16 (≈ 15.8 to 31.7 µM) | – | – | – | – | – | –
N=C(N)c1ccc(OCCCCCCOc2ccc(C(=N)N)cc2)cc1 [HX, hexamidine] | 64 (≈ 181 µM) | – | – | 32 to 64 (≈ 90.3 to 181 µM) | 16 to 32 (≈ 45.1 to 90.3 µM) | 4 to 8 (≈ 11.3 to 22.6 µM) | – | – | – | 8 to 16 (≈ 22.6 to 45.1 µM) | 2 (≈ 5.64 µM) | 4 (≈ 11.3 µM) | 32 to 64 (≈ 90.3 to 181 µM) | 16 to 32 (≈ 45.1 to 90.3 µM) | 4 to 8 (≈ 11.3 to 22.6 µM) | 8 to 16 (≈ 22.6 to 45.1 µM)
N=C(N)NCCc1ccc(OCCCCCCOc2ccc(CCNC(=N)N)cc2)cc1 [compound 6, 1,6-bis(4-(2-guanidinoethyl)phenoxy)hexane] | 32 (≈ 72.6 µM) | < 1 | 16 (≈ 36.3 µM) | 4 to 8 (≈ 9.08 to 18.2 µM) | 4 to 8 (≈ 9.08 to 18.2 µM) | 1 to 2 (≈ 2.27 to 4.54 µM) | 8 to 16 (≈ 18.2 to 36.3 µM) | 4 to 8 (≈ 9.08 to 18.2 µM) | 0.5 to 1 (≈ 1.13 to 2.27 µM) | 4 to 8 (≈ 9.08 to 18.2 µM) | – | – | – | – | – | –
